Experiment: Phase I clinical trial: safety, related treatment-emergent adverse events, patients n (%)
Format: in vivo
[1] = Total QW Dosing, N = 15, listed as Cpd A
[2] = all 3 intermittent dosing regimens, n=35

Procedure: Safety, maximum tolerated dose (MTD), pharmacokinetics (PK) and preliminary antitumor activity were evaluated.
Pharmacodynamic (PD) endpoints were evaluated in surrogate (peripheral blood cells [PBCs], skin) and tumor tissues for the phosphorylation of TORC1-dependent markers (4EBP1/S6), and TORC2-dependent markers (AKT/PRAS40).

## CC(C)n1nc(-c2ccc3oc(N)nc3c2)c2c(N)ncnc21 [compound A]
Total QDx3d QW, N = 14
  Gastritis: 0 (0%)
  Gravitational oedema: 0 (0%)
  Hypocalcaemia: 0 (0%)
  Insomnia: 0 (0%)
  Malaise: 0 (0%)
  Nausea: 0 (0%)
  Oral discomfort: 0 (0%)
  Orthostatic hypotension: 0 (0%)
  Panniculitis: 0 (0%)
  Polyuria: 0 (0%)
  Rash: 0 (0%)
  Skin discolouration: 0 (0%)
  Skin exfoliation: 0 (0%)
  Urine tract infection: 0 (0%)
  Vomiting: 0 (0%)
  Weakness: 0 (0%)
  Weight decreased: 0 (0%)
Total QDx5d QW, N = 6
  Catheter site inflammation: 0 (0%)
  Catheter site pain: 0 (0%)
  Coagulopathy: 0 (0%)
  Confusional state: 0 (0%)
  Cough: 0 (0%)
  Diarrhea: 0 (0%)
  Dizziness: 0 (0%)
  Dyspnoea exertional: 0 (0%)
  Eye infection: 0 (0%)
  Fatigue: 0 (0%)
  Gastritis: 0 (0%)
  Gravitational oedema: 0 (0%)
  Headache: 0 (0%)
  Hyperbilirubinaemia: 0 (0%)
  Hypertransaminasaemia: 0 (0%)
  Hypertriglyceridaemia: 0 (0%)
  Hypocalcaemia: 0 (0%)
  Hypomagnesaemia: 0 (0%)
  Hypotension: 0 (0%)
  Insomnia: 0 (0%)
  Low fever: 0 (0%)
  Malaise: 0 (0%)
  Nausea (second line): 1 (17%)
  Oral discomfort: 0 (0%)
  Orthostatic hypotension: 0 (0%)
  Palmar-plantar erythrodysaesthesia syndrome: 0 (0%)
  Panniculitis: 0 (0%)
  Platelet count decreased: 0 (0%)
  Polyuria: 0 (0%)
  Pyrexia: 0 (0%)
  Rash: 0 (0%)
  Rash macular: 0 (0%)
  Skin discolouration: 0 (0%)
  Skin exfoliation: 0 (0%)
  Urinary tract infection: 0 (0%)
  Weakness: 0 (0%)
  Weight decreased: 0 (0%)
Total QW Dosing, N = 15
  Aspartate aminotransferase increased: 2 (13%)
  Asthenia: 2 (13%)
  Catheter site inflammation: 0 (0%)
  Catheter site pain: 0 (0%)
  Coagulopathy: 0 (0%)
  Confusional state: 0 (0%)
  Cough: 0 (0%)
  Diarrhoea: 3 (20%)
  Dizziness: 0 (0%)
  Dyspnoea exertional: 0 (0%)
  Eye infection: 0 (0%)
  Fatigue: 0 (0%)
  Gastritis: 0 (0%)
  Gravitational oedema: 0 (0%)
  HYPERGLYCEMIA: 2 (13%)
  Headache: 0 (0%)
  Hyperbilirubinaemia: 0 (0%)
  Hyperglycaemia: 5 (33%)
  Hypertransaminasaemia: 0 (0%)
  Hypertriglyceridaemia: 0 (0%)
  Hypocalcaemia: 0 (0%)
  Hypomagnesaemia: 0 (0%)
  Hypotension: 0 (0%)
  Insomnia: 0 (0%)
  Low fever: 0 (0%)
  Mucosal inflammation: 3 (20%)
  Nausea: 0 (0%)
  Orthostatic hypotension: 0 (0%)
  Palmar-plantar erythrodysaesthesia syndrome: 0 (0%)
  Panniculitis: 0 (0%)
  Patients Reporting at Least One Related TEAE: 13 (87%)
  Platelet count decreased: 0 (0%)
  Polyuria: 0 (0%)
  Pyrexia: 0 (0%)
  Rash macular: 0 (0%)
  Skin discolouration: 0 (0%)
  Skin exfoliation: 0 (0%)
  Urinary tract infection: 0 (0%)
  Urine tract infection: 0 (0%)
  Vomiting: 0 (0%)
  Weight decreased: 0 (0%)
[1]
  Nausea: 10 (67%)
  Vomiting: 5 (33%)
Total, N = 60
  Catheter site inflammation: 1 (2%)
  Catheter site pain: 1 (2%)
  Coagulopathy: 1 (2%)
  Confusional state: 1 (2%)
  Cough: 1 (2%)
  Diarrhea: 1 (2%)
  Dizziness: 1 (2%)
  Dyspnoea exertional: 1 (2%)
  Eye infection: 1 (2%)
  Fatigue: 1 (2%)
  Gastritis: 1 (2%)
  Gravitational oedema: 1 (2%)
  Headache: 1 (2%)
  Hyperbilirubinaemia: 1 (2%)
  Hypertransaminasaemia: 1 (2%)
  Hypertriglyceridaemia: 1 (2%)
  Hypocalcaemia: 1 (2%)
  Hypomagnesaemia: 1 (2%)
  Hypotension: 1 (2%)
  Insomnia: 1 (2%)
  Low fever: 1 (2%)
  Malaise: 1 (2%)
  Nausea: 1 (2%)
  Oral discomfort: 1 (2%)
  Orthostatic hypotension: 1 (2%)
  Palmar-plantar erythrodysaesthesia syndrome: 1 (2%)
  Panniculitis: 1 (2%)
  Platelet count decreased: 1 (2%)
  Polyuria: 1 (2%)
  Pyrexia: 1 (2%)
  Rash: 1 (2%)
  Rash macular: 1 (2%)
  Skin discolouration: 1 (2%)
  Skin exfoliation: 1 (2%)
  Urinary tract infection: 1 (2%)
  Urine tract infection: 1 (2%)
  Vomiting: 1 (2%)
  Weakness: 1 (2%)
  Weight decreased: 1 (2%)
[2]
  AE possibly related: asthenia: 23%
  AE possibly related: diarrhea: 20%
  AE possibly related: hyperglycemia: 37%
  AE possibly related: mucosal inflammation: 29%
  AE possibly related: nausea: 51%
  AE possibly related: rash: 23%
  AE possibly related: vomiting: 26%
All AEs reported
  reversibility of adverse events: reversible
Any regimen
  grade of the majority of AEs possibly related: Grade 1 or 2
